Data taken from patent publication US20250339447A1, “19-NOR C3,3-DISUBSTITUTED C21-N-PYRAZOLYL STEROID AND METHODS OF USE THEREOF” (Sage Therapeutics, Inc., priority 2018, published 2025).

Tests used:
[1] = tested on: synaptic and extrasynaptic GABAA receptors; test: Modulation of GABAA receptors; details: stated in background
subjects with MDD [2] = test: Phase 2 study in subjects with MDD (dose justification); format: in vivo, human; details: 30 mg per day
Excerpt: (§1) Dose adjustments to 20-mg of Compound 1 were permitted; 20-mg of Compound 1 was anticipated to be well tolerated as it was lower than the maximum tolerated dose level.

[3] = tested on: female subjects diagnosed with severe postpartum depression; test: Placebo-controlled study of Compound 1 capsules in severe postpartum depression (Example 1); format: in vivo, human
Procedure: Compound 1 was investigated for use in subjects with depression. Female subjects (18-65 years old) diagnosed with severe postpartum depression (PDD) with a HAM-D total score of greater than or equal to 26 at screening and Day 1 were used in the investigation. The subjects were dosed once per day with capsules containing 30 mg of Compound 1. The dose could be adjusted to capsules containing 20 mg of Compound 1 if the 30 mg dose was not tolerated. Subjects not dosed with Compound 1 were dosed with a placebo. In total, 78 subjects were treated with Compound 1 at 30 mg and 73 subjects were treated with placebo.
Assuming a 2-sided test at an alpha level of 0.05, a sample size of approximately 65 evaluable subjects per treatment group provided 90% power to detect a placebo-adjusted treatment difference of approximately 4 points in the primary endpoint, change from baseline in HAM-D total score at Day 15 assuming standard deviation (SD) of 7 points. The change from baseline in the HAM-D total score was analyzed using a mixed effects model for repeated measures (MMRM). The model included the change from baseline at each visit as the dependent variable. The main comparison was (difference in least mean square [LSMEAN]) between Compound 1 Capsules and placebo at the 15-day timepoint.
For Model-based point estimates (i.e., LSMEAN, 95% confidence intervals, and p-values), an unstructured covariance structure was used to model the within-subject errors. If there was a convergence issue with the unstructured covariance model, Toeplitz, compound symmetry or Autoregressive (1) (AR[1]) covariance structure was used, following this sequence until convergence was achieved. […] When the covariance structure was not UN, the sandwich estimator for the variance-covariance matrix was derived, using the EMPIRICAL option in the PROC MIXED statement in SAS.
Similarly, an MMRM was used for the analysis of the following variables: changes from baseline in MADRS total score and HAM-A total score, and select individual item and subscale scores. For each model, the comparison of interest was between Compound 1 Capsules and matching placebo at the 15-day time point. Model-based point estimates (i.e., LS means), 95% confidence intervals, and p-values were reported.

subjects with MDD [4] = test: HAM-D course to Day 42 after a Compound 1 treatment cycle (source study not given); format: in vivo, human
Excerpt: Because of this, most subjects were eligible (i.e., PHQ-9 ≥10 and HAM-D ≥20 confirmed over 2 weeks) for a Compound 1 treatment cycle when needed; a 2-week period was required to establish a new MDE (DSM-5).

[5] = Previous clinical trials, morning versus evening administration; format: in vivo, human
Excerpt: as §1

[6] = tested on: adult patients diagnosed with MDD (MADRS total score ≥32 and HAM-D total score ≥22); test: Double-blind, randomized placebo-controlled Phase 3 study in Major Depressive Disorder (Example 5); format: in vivo, human; details: for overall incidence of patients who experienced AEs: 14-day treatment period and 28-day follow up, placebo 48.9%; for Fatigue incidence: placebo 2.6%; for Sedation incidence / treatment emergent AEs leading to study drug discontinuation: placebo 3.2%; for Dizziness incidence: placebo 3.7%; for Somnolence incidence: placebo 4.2%; for Nausea incidence: placebo 4.7%; for Diarrhea incidence: placebo 5.3%; for Headache incidence: treatment and 28-day follow up, placebo 7.4%
Procedure: Compound 1 was evaluated in a double-blind, randomized placebo-controlled Phase 3 study in Major Depressive Disorder (MDD). The evaluated the efficacy, safety and pharmacokinetics of Compound 1 in adult patients diagnosed with MDD (MADRS total score ≥32 and a HAM-D total score ≥22).
Compound 1 was administered to a patient, either in 20 mg daily doses once a day for 14 days or 30 mg once a day for 14 days.
Post-hoc analyses were conducted to evaluate the effects of performance factors of Compound 1 in the primary analysis, in patients with measurable drug concentrations, in patients with HAM-D≥24, and in patients with measurable drug concentrations and HAM-D≥24, and including the primary outcome at Day 15 (FIG. 11).

[7] = Day 42, among subjects achieving remission or response at Day 15

C[C@@]1(O)CC[C@H]2[C@H](CC[C@@H]3[C@@H]2CC[C@]2(C)[C@@H](C(=O)Cn4cc(C#N)cn4)CC[C@@H]32)C1 [Compound 1]
mode of action at GABAA receptors [1]: positive allosteric modulator
efficacy and tolerability of the dose level (subjects with MDD [2]): efficacious and well-tolerated
overall efficacy conclusion ([3]; 30 mg once a day for 15 days, compared to placebo): effective at treating postpartum depression
mean decrease from baseline in HAM-D total score ([3]; 30 mg once daily, Day 15, mean baseline 28.4 (2.09), placebo −13.6 (8.31)): −18.0 (8.36)
model-based between treatment group difference in HAM-D total score change (95% CI) ([3]; 30 mg vs placebo, Day 15, MMRM, p 0.0029): −4.2 (−6.9, −1.5)
model-based between treatment group difference in HAM-A total score change (95% CI) ([3]; 30 mg vs placebo, Day 15, p 0.0063): −3.90 (−6.7, −1.1)
model-based between treatment group difference in MADRS total score change (95% CI) ([3]; 30 mg vs placebo, Day 15, p=0.0182): −4.6 (−8.3, −0.8)
CGI-I response, model-based odds ratio (95% CI) ([3]; 30 mg vs placebo, Day 15, p=0.0280): 2.15 (1.09, 4.27)
HAM-D response, model-based odds ratio (95% CI) ([3]; 30 mg vs placebo, p=0.0050): 2.63 (1.34, 5.16)
HAM-D remission, model-based odds ratio (95% CI) ([3]; 30 mg vs placebo, p=0.0122): 2.50 (1.22, 5.11)
CGI-I response rate ([3]; 30 mg, Day 15, 53/74 subjects, placebo 38/73 (52.1%)): 71.6%
mean decrease from baseline in MADRS total score ([3]; 30 mg, Day 15, baseline 34.9 (4.41), placebo −17.7 (11.72)): −22.0 (11.64)
mean decrease from baseline in HAM-A total score ([3]; 30 mg, Day 15, mean baseline 26.1 (5.88), placebo −12.9 (8.57)): −16.5 (9.51)
HAM-D remission rate ([3]; 30 mg, 33/74 subjects, placebo 17/73 (23.3%)): 44.6%
HAM-D response rate ([3]; 30 mg, 53/74 subjects, placebo 35/73 (47.9%)): 71.6%
subjects achieving remission or response (subjects with MDD [4]; Day 15): 78.6%
subjects with HAM-D score of 16 to 21 (subjects with MDD [4]; [7]): 18.2%
subjects with HAM-D ≥22 (subjects with MDD [4]; [7]): 6.1%
adverse effect observed ([5]; administered in the morning): sedation/somnolence
tolerability ([5]; given in the evening): improved tolerability
tolerability in the trial ([6]; 20 mg and 30 mg): generally well tolerated
separation from placebo ([6]; 20 mg once a day for 14 days): did not separate from placebo
overall incidence of patients who experienced AEs ([6]; 20 mg): 50.0%
patients reporting SAEs during follow-up ([6]; 20 mg, complications of cocaine ingestion, Day 39): one
Fatigue incidence ([6]; 20 mg): 1.6%
Sedation incidence ([6]; 20 mg): 5.9%
treatment emergent AEs leading to study drug discontinuation ([6]; 20 mg): 1.6%
Dizziness incidence ([6]; 20 mg): 7.4%
Somnolence incidence ([6]; 20 mg): 5.9%
Nausea incidence ([6]; 20 mg): 5.3%
Diarrhea incidence ([6]; 20 mg): 5.9%
Headache incidence ([6]; 20 mg): 11.2%
HAM-D total score, LS Mean Difference from placebo ([6]; 30 mg (n=166) vs placebo (n=157), Day 3, p=0.016): −1.6
reduction in depressive symptoms in the HAM-D total score ([6]; 30 mg once a day for 14 days, Day 15 (primary endpoint), placebo 11.2): 12.6
HAM-D total score, LS Mean Difference, post-hoc ([6]; 30 mg vs placebo, Day 15, patients with HAM-D≥24, p=0.032): −2.3
HAM-D total score, LS Mean Difference from placebo ([6]; 30 mg, Day 8, p=0.008): −2.1
HAM-D total score, LS Mean Difference from placebo ([6]; 30 mg, Day 12, p=0.018): −2.1
HAM-D total score, LS Mean Difference from placebo ([6]; 30 mg, Day 15, p=0.115): −1.4
change from baseline in HAM-D total score, post-hoc ([6]; 30 mg, Day 15, patients with HAM-D≥24 (n=124), placebo −11.4): −13.7
change from baseline in HAM-D total score, post-hoc ([6]; 30 mg, Day 15, patients with measurable drug concentrations (n=151), placebo −11.2): −13.0
change from baseline in HAM-D total score, post-hoc ([6]; 30 mg, Day 15, patients with measurable drug concentrations and HAM-D≥24 (n=115), placebo −11.4): −14.0
HAM-D total score, LS Mean Difference from placebo ([6]; 30 mg, Day 42, p=0.807): −0.5
change from baseline in HAM-D total score ([6]; 30 mg, Day 42, placebo −11.7): −11.9
overall incidence of patients who experienced AEs ([6]; 30 mg): 54.2%
Fatigue incidence ([6]; 30 mg): 6.8%
Sedation incidence ([6]; 30 mg): 4.7%
treatment emergent AEs leading to study drug discontinuation ([6]; 30 mg): 2.1%
Dizziness incidence ([6]; 30 mg): 5.7%
Somnolence incidence ([6]; 30 mg): 6.8%
Nausea incidence ([6]; 30 mg): 3.6%
Diarrhea incidence ([6]; 30 mg): 6.3%
patients with serious adverse events (SAEs) during treatment ([6]; 30 mg, suicide attempt Day 5, bile duct stone after Day 2): Two
patients reporting SAEs during follow-up ([6]; 30 mg, syncope and associated injuries, Day 28): one
Headache incidence ([6]; 30 mg): 6.3%
AEs of loss of consciousness ([6]; all groups): no AEs of loss of consciousness
suicidal ideation or behavior by Columbia Suicide Severity Rating Scale (C-SSRS) ([6]; compared to baseline): no signal for increased suicidal ideation or suicidal behavior
depressive symptoms in long-term follow-up ([6]; patients who completed long-term follow-up up to 6 months, preliminary data): maintenance of improvement in depressive symptoms
